Test results reported in patent US8815882B2, “Pyrazole aminopyrimidine derivatives as LRRK2 modulators” (Genentech, Inc., priority 2010, dated 2014).

Target: T1, LRRK2 (Homo sapiens, UniProt Q5S007, G2019S)
T1 construct: purchased Invitrogen PV4882 (lot 567054A)
Test: In Vitro LRRK2 Assay (LabChip 3000, fluorescently-labeled peptide substrate, ATP)
Assay type: biochemical
Conditions: Table 10; LRRK2 Ki (micromolar); read-out: LRRK2 Ki (KI)
Method: This assay was used to determine a compound's potency in inhibiting activity of LRRK2 by determining, Kiapp, IC50, or percent inhibition values. In a polypropylene plate, LRRK2, fluorescently-labeled peptide substrate, ATP and test compound were incubated together. Using a LabChip 3000 (Caliper Life Sciences), after the reaction the substrate was separated by capillary electrophoresis into two populations: phosphorylated and unphosphorylated. The relative amounts of each were quantitated by fluorescence intensity. LRRK2 Ki was determined according to the equation: Y=V0*(1−(x+Ki*(1+S/Km)+Et)/(2*Et)−(((x+Ki*(1+S/Km)+Et)^2−(4*Et*x))^0.5)/(2*Et))). Ki values in Table 4 and elsewhere herein are shown in μM.
Assay conditions and materials used were as follows:
Compound Plate Preparation:
For serial dilutions, 34.6 μl DMSO was added to columns 3-24.
Total and Blank Preparation:
In Complete Reaction Buffer, substrate was diluted to 4 μM. Equal volumes of Complete Reaction Buffer and 4 μM substrate were combined to obtain the blank. Equal volumes of Complete Reaction Buffer and 4 μM substrate were combined and to the combined solution was added 2× final LRRK2 concentration.
To a 50 μl polypropylene plate, 5 μl/well buffer/substrate was added by hand to Blank wells. A Biomek FX was used to start the kinase reaction (“PLK SAR 23 ATP”). The following were added to the appropriate wells:
5 μl/well compound/ATP in Assay Plate;
5 μl/well kinase/substrate in Assay Plate;
The plate was incubated for 2 hours in the dark. Biomek FX was used to stop the kinase reaction (“PLK Stop”), and 10 μl/well Stop solution was added to the Assay Plate. Results were read on the LabChip 3000.
The LabChip 3000 was run using the job “LRRK2 IC50” with the following job settings: […]

T1 sequence (Q5S007 whole entry G2019S): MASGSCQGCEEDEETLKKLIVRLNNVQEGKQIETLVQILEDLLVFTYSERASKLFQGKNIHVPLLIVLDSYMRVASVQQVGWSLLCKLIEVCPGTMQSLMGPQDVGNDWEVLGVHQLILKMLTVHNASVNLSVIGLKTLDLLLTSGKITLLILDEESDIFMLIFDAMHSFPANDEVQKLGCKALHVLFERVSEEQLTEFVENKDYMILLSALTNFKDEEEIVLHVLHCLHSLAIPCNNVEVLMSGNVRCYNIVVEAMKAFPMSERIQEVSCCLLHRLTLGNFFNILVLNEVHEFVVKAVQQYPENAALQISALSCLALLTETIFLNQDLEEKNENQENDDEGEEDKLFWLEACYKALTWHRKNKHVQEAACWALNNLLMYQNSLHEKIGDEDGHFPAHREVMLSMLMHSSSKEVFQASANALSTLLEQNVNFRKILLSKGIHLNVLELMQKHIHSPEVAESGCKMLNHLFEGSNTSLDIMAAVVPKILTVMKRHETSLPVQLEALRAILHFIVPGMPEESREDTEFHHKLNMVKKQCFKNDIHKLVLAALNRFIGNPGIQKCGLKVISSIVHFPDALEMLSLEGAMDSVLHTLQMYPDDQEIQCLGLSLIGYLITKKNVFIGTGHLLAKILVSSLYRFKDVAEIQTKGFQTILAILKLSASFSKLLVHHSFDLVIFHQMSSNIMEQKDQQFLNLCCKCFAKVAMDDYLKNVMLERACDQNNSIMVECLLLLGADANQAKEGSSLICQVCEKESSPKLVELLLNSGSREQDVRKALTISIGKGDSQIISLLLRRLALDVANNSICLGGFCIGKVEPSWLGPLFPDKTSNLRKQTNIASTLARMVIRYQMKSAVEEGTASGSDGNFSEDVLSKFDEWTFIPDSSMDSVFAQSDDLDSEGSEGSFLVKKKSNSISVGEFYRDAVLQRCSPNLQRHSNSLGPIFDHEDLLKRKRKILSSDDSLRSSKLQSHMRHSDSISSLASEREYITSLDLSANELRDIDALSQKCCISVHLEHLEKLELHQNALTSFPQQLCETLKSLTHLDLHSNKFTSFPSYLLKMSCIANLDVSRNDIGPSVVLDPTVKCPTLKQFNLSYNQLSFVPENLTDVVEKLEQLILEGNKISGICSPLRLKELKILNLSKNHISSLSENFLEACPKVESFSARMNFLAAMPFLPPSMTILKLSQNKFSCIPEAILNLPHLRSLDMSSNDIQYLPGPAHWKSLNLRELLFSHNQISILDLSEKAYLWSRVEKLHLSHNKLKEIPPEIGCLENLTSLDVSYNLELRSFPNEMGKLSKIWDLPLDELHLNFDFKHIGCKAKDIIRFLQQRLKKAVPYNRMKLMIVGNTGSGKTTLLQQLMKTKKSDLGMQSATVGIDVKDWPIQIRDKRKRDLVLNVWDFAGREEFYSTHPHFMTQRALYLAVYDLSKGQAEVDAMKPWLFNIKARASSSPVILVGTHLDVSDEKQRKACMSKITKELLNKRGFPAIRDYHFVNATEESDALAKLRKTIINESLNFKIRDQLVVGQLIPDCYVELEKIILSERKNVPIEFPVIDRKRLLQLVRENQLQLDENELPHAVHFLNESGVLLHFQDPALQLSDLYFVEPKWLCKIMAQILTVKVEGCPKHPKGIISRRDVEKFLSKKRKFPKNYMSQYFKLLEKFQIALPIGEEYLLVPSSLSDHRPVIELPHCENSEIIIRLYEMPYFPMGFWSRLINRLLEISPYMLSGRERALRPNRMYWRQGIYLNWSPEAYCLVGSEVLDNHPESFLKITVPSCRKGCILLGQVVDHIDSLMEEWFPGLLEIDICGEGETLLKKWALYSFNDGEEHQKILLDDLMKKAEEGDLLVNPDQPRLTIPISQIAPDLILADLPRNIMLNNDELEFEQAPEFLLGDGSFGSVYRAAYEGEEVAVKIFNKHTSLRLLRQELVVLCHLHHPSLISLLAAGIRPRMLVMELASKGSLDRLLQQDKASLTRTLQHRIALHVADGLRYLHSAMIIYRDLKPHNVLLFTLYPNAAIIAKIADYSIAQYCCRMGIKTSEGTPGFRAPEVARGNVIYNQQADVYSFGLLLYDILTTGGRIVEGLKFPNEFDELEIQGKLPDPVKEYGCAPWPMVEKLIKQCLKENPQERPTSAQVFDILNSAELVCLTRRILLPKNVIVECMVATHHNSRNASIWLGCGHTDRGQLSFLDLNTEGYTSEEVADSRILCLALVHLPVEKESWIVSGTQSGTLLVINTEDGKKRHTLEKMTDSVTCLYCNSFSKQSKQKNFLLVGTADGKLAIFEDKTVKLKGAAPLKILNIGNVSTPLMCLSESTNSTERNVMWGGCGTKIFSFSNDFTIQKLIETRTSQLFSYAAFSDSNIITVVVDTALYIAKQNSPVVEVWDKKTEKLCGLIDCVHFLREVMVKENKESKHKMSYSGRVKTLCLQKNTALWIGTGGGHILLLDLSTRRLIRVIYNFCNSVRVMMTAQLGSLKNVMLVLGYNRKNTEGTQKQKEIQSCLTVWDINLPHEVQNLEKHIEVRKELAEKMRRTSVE

Ki	SMILES
0.3 nM	CCNc1nc(Nc2cn(C(C)(C)C#N)nc2C)ncc1C(F)(F)F [Example 451, 2-[4-(4-Ethylamino-5-trifluoromethyl-pyrimidin-2-ylamino)-3-methyl-pyrazol-1-yl]-2-methyl-propionitrile]
2.8 nM	CNc1nc(Nc2cn(CC(C)(C)C#N)nc2C)ncc1C(F)(F)F [Example 420, 2,2-dimethyl-3-(3-methyl-4-(4-(methylamino)-5-(trifluoromethyl)pyrimidin-2-ylamino)-1H-pyrazol-1-yl)propanenitrile]
52 nM	CNc1nc(Nc2cn(C(C)(C)C(=O)NCC3CC3)nc2C)ncc1C(F)(F)F [Example 427, N-(cyclopropylmethyl)-2-methyl-2-(3-methyl-4-(4-(methylamino)-5-(trifluoromethyl)pyrimidin-2-ylamino)-1H-pyrazol-1-yl)propanamide]

Same assay, conditions: read-out: LRRK2 Ki (KI), Table 7

Ki	SMILES
2.4 nM	COc1nc(Nc2cn(-c3ccc(C#N)cc3)nc2C)ncc1Cl [Example 68, 4-(4-(5-chloro-4-methoxy-pyrimidin-2-ylamino)-3-methyl-1H-pyrazol-1-yl)benzonitrile]

Same assay, conditions: read-out: LRRK2 Ki (KI), Table 8

Ki	SMILES
11 nM	CNc1nc(Nc2cnn(C)c2C2CCC2)ncc1C(F)(F)F [Example 229, N2-(5-cyclobutyl-1-methyl-1H-pyrazol-4-yl)-N4-methyl-5-(trifluoromethyl) pyrimidine-2,4-diamine]
2 nM	CCNc1nc(Nc2cnn(C3CCN(CCOC)CC3)c2C)ncc1C(F)(F)F [Example 283, N4-Ethyl-N2-{1-[1-(2-methoxy-ethyl)-piperidin-4-yl]-5-methyl-1H-pyrazol-4-yl}-5-trifluoromethyl-pyrimidine-2,4-diamine]
2.2 nM	CCNc1nc(Nc2cnn(CC3(C)COC3)c2C)ncc1C(F)(F)F [Example 169, N4-ethyl-N2-(5-methyl-1-((3-methyloxetan-3-yl)methyl)-1H-pyrazol-4-yl)-5-(trifluoromethyl) pyrimidine-2,4-diamine]
10 nM	CNc1nc(Nc2cnn(S(C)(=O)=O)c2C)ncc1C(F)(F)F [Example 195, N4-methyl-N2-(5-methyl-1-(methylsulfonyl)-1H-pyrazol-4-yl)-5-(trifluoromethyl) pyrimidine-2,4-diamine]
29 nM	CNc1nc(Nc2cn([C@@H]3CCN(C4COC4)C3)nc2C)ncc1C(F)(F)F [Example 204, (R)-N4-methyl-N2-(3-methyl-1-(1-(oxetan-3-yl)pyrrolidin-3-yl)-1H-pyrazol-4-yl)-5-(trifluoromethyl) pyrimidine-2,4-diamine]
0.6 nM	CCCn1cc(Nc2ncc(C(F)(F)F)c(NC)n2)c(C)n1 [Example 120, N4-methyl-N2-(3-methyl-1-propyl-1H-pyrazol-4-yl)-5-(trifluoromethyl) pyrimidine-2,4-diamine]
17 nM	CNc1nc(Nc2cnn(-c3ccc(C#N)cc3)c2C)ncc1C(F)(F)F [Example 147, 4-(5-methyl-4-(4-(methylamino)-5-(trifluoromethyl)pyrimidin-2-ylamino)-1H-pyrazol-1-yl)benzonitrile]
69 nM	CNc1nc(Nc2cn(C)nc2C(C)C)ncc1C(F)(F)F [Example 227, N2-(3-isopropyl-1-methyl-1H-pyrazol-4-yl)-N4-methyl-5-(trifluoromethyl) pyrimidine-2,4-diamine]
0.6 nM	CNc1nc(Nc2cn(Cc3cccc(C)n3)nc2C)ncc1C(F)(F)F [Example 293, N4-Methyl-N2-[3-methyl-1-(6-methyl-pyridin-2-ylmethyl)-1H-pyrazol-4-yl]-5-trifluoromethyl-pyrimidine-2,4-diamine]
0.4 nM	CCNc1nc(Nc2cnn(C3CCN(C(C)=O)CC3)c2C)ncc1C(F)(F)F [Example 137, 1-(4-(4-(4-(ethylamino)-5-(trifluoromethyl)pyrimidin-2-ylamino)-5-methyl-1H-pyrazol-1-yl)piperidin-1-yl)ethanone]
0.3 nM	CCNc1nc(Nc2cnn(-c3ccc(S(C)(=O)=O)cc3)c2C)ncc1C(F)(F)F [Example 163, N4-ethyl-N2-(5-methyl-1-(4-(methylsulfonyl)phenyl)-1H-pyrazol-4-yl)-5-(trifluoromethyl) pyrimidine-2,4-diamine]
